Source: patent publication US9522930B2, “Chartreusin analogues” (Leibniz-Institut Für Naturstoff-Forschung Und …, priority 2012, dated 2016)
Values after ≈ are worked out from the molar mass of the structure shown. Read-outs that look alike come from different tables or passages of the source.

Key:
[1] = Cytotoxicity against HeLa; settings: human, HeLa cells (human cervix carcinoma, DSM ACC 57)
Description: (§2) Compounds were assayed against human umbilical vein endothelial cells HUVEC (ATCC CRL-1730) and human chronic myeloid leukemia cells K-562 (DSM ACC 10) for their antiproliferative effects (GI50) and against human cervix carcinoma cells HeLa (DSM ACC 57) for their cytotoxic effects (CC50) as previously described (Scherlach, K., Partida-Martinez, L. P., Dahse, H. M. & Hertweck, C. Antimitotic rhizoxin derivatives from a cultured bacterial endosymbiont of the rice pathogenic fungus Rhizopus microsporus. Journal of the American Chemical Society 128, 11529-11536 (2006)).

[2] = system: human chronic myeloid leukemia cells K-562 (DSM ACC 10); experiment: Growth inhibition (antiproliferative effect) of K-562; type: cell-based
Description: as §2

[3] = system: Mycobacterium vaccae 10670; experiment: Antimicrobial activity (MIC), test strain Mycobacterium vaccae 10670; type: cell-based
Text: Antimicrobial (MIC value [μM]), cytotoxic (CC50 [μM] for HeLa) and antiproliferative (GI50 [μM] for HUVEC, K-562, HT-29 and MEL-HO) activities of chartreusin and its derivatives. Test strain: Mycobacterium vaccae 10670.

[4] = system: human umbilical vein endothelial cells HUVEC (ATCC CRL-1730); experiment: Growth inhibition (antiproliferative effect) of HUVEC; type: cell-based; settings: read-out: antiproliferative GI50, HUVEC
Description: as §2

[5] = system: human cervix carcinoma cells HeLa (DSM ACC 57); experiment: Cytotoxicity against HeLa; settings: for CC50: read-out: cytotoxic CC50, HeLa, HeLa
Description: as §2

[6] = system: methicillin-resistant Staphylococcus aureus (MRSA); experiment: Antibiotic activity against MRSA; type: cell-based
in vitro = settings: human
Description: as §2

[7] = system: human HT-29 colon adenocarcinoma cells (ACC 299); experiment: Growth inhibition of HT-29 in the presence or absence of light; type: cell-based
Description: (§1) The human HT-29 colon adenocarcinoma cells (ACC 299) and the human MEL-HO (ACC 62) melanoma cells were grown as previously described (Ueberschaar, N.; Dahse, H.-M.; Bretschneider, T.; Hertweck, C. Angew. Chem. Int. Ed. 2013, 52, 6185-6189).

[8] = system: human MEL-HO (ACC 62) melanoma cells; experiment: Growth inhibition of MEL-HO in the presence or absence of light; type: cell-based
Description: as §1

[9] = Homo sapiens, K562; read-out: antiproliferative GI50, K-562
[10] = Mycolicibacterium vaccae, Test strain: Mycobacterium vaccae 10670, read-out: Antimicrobial MIC value, Mycobacterium vaccae
[11] = K-562; read-out: antiproliferative GI50, K-562
[12] = Test strain: Mycobacterium vaccae 10670, read-out: Antimicrobial MIC value, Mycobacterium vaccae
[13] = Homo sapiens, K562, read-out: antiproliferative GI50, K-562
[14] = Homo sapiens, HT-29, 8 h, read-out: antiproliferative GI50, HT-29, 420 nm, 3 × 8 h, HT-29, 420 nm, 3 × 8 h
[15] = Homo sapiens, HT-29, read-out: GI50 with light, HT-29, HT-29, with light (blue LED)
[16] = Homo sapiens, HT-29, read-out: GI50 without light, HT-29, HT-29, without light (absence of light)
[17] = Homo sapiens, HT-29, read-out: antiproliferative GI50, HT-29, w/o light, HT-29, w/o light
[18] = read-out: GI50 without light, HT-29, HT-29, without light (absence of light)
[19] = 8 h, read-out: antiproliferative GI50, Mel-HO, 420 nm, 3 × 8 h
[20] = read-out: antiproliferative GI50, Mel-HO, w/o light
[21] = Mycolicibacterium vaccae, 10670, read-out: Antimicrobial MIC value, Mycobacterium vaccae

Molecule | CC50 [1] [µM] | GI50 [2, 9] [µM] | MIC [3, 10] [µM] | GI50 ([4]; Homo sapiens) [µM] | other results
COC1[C@@H](O)C(C)O[C@H](OC2[C@H](Oc3cccc4c(O)c5c(=O)oc6cccc7c(=O)oc(c34)c5c67)OC(C)[C@H](O)[C@@H]2O)[C@@H]1O (stereo partly shown) [Norchartreusin] | 70.7 | 31.6 | 2.5 (≈ 1.57 µg/mL) | 79.8 | –
COC1[C@@H](O)C(C)O[C@H](OC2[C@H](Oc3cccc4c(O)c5c(=O)oc6ccc(Br)c7c(=O)oc(c34)c5c67)OC(C)[C@H](O)[C@@H]2O)[C@@H]1O (stereo partly shown) [Bromchartreusin, 1-Bromochartreusin] | 48.2 | 8.79 | 8.9 (≈ 6.28 µg/mL) | 65.8 | –
COC1[C@@H](O)C(C)O[C@H](OC2[C@H](Oc3cccc4c(O)c5c(=O)oc6cc(Br)cc7c(=O)oc(c34)c5c67)OC(C)[C@H](O)[C@@H]2O)[C@@H]1O (stereo partly shown) [(1→2)Abeobromchartreusin, (1→2)-Abeo-bromochartreusin] | 26.1 | 8.65 | 17.7 (≈ 12.5 µg/mL) | 25.1 | –
vinylchartarin-1,10 bis-1,4′-bipiperidine-1′-carboxylate | – | – | – | – | CC50 [5]: > 68 µM; GI50 [2, 11]: > 68 µM; MIC [3, 12]: >100 µM; GI50 [4]: > 68 µM
C#Cc1cc2oc(=O)c3c(O)c4cccc(O[C@@H]5OC(C)[C@H](O)[C@H](O)C5O[C@H]5OC(C)[C@H](O)C(OC)[C@H]5O)c4c4oc(=O)c(c1)c2c34 (stereo partly shown) [(1→2)Abeo-ethinylchartreusin, (1→2)-Abeo-ethynylchartreusin] | – | – | 19.2 (≈ 12.5 µg/mL) | 7.84 | antibiotic activity against MRSA relative to chartreusin and ciprofloxacin [6]: as active as the natural product and are even more potent than the reference antibiotic ciprofloxacin; CC50 (in vitro): 13.4 µM; GI50 [2, 13]: 3.23 µM; activity higher in the presence of light, HT-29 ([7]; HT-29, with light vs without light): 5 fold; GI50 [7, 14]: 1.69 µM; GI50 [7, 15]: 1.7 µM; GI50 [7, 16]: 7 to 9.4 µM; GI50 [7, 17]: 8.61 µM; GI50 [7, 18]: 8.6 µM; GI50 [8, 19]: 1380 nM; GI50 [8, 20]: 2000 nM
COc1ccc2oc(=O)c3c(O)c4cccc(O[C@@H]5OC(C)[C@H](O)[C@H](O)C5O[C@H]5OC(C)[C@H](O)C(OC)[C@H]5O)c4c4oc(=O)c1c2c34 (stereo partly shown) [Methoxychartreusin] | > 76 | > 76 | 76 (≈ 49.9 µg/mL) | > 76 | –
O=C(Oc1c2cccc(OC(=O)N3CCC(N4CCCCC4)CC3)c2c2oc(=O)c3c(Br)ccc4oc(=O)c1c2c43)N1CCC(N2CCCCC2)CC1 [Bromchartarin-1,10 bis-1,4′-bipiperidine-1′-carboxylate] | 20.2 | 9.27 | – | 10 | MIC [3, 21]: > 100 µM
COC1[C@@H](O)C(C)O[C@H](OC2[C@H](Oc3cccc4c(O)c5c(=O)oc6ccc(O)c7c(=O)oc(c34)c5c67)OC(C)[C@H](O)[C@@H]2O)[C@@H]1O (stereo partly shown) | 25.5 | 4.82 | 2.4 (≈ 1.54 µg/mL) | 35 | –
C=Cc1cc2oc(=O)c3c(O)c4cccc(O[C@@H]5OC(C)[C@H](O)[C@H](O)C5O[C@H]5OC(C)[C@H](O)C(OC)[C@H]5O)c4c4oc(=O)c(c1)c2c34 (stereo partly shown) [(1→2)Abeovinylchartreusin, (1→2)-Abeo-vinylchartreusin] | – | – | 19.2 (≈ 12.5 µg/mL) | 16.9 | CC50 (in vitro): 33.7 µM; GI50 [2, 13]: 4.9 µM; GI50 [7, 14]: 3.06 µM; GI50 [7, 15]: 3.1 µM; GI50 [7, 16]: 7 to 9.4 µM; GI50 [7, 17]: 9.35 µM; GI50 [7, 18]: 9.4 µM; GI50 [8, 19]: 480 nM; GI50 [8, 20]: 1030 nM
CCc1cc2oc(=O)c3c(O)c4cccc(O[C@@H]5OC(C)[C@H](O)[C@H](O)C5O[C@H]5OC(C)[C@H](O)C(OC)[C@H]5O)c4c4oc(=O)c(c1)c2c34 (stereo partly shown) [(1→2)Abeohomochartreusin, (1→2)-Abeo-homochartreusin] | 58.1 | 11.6 | 19.1 (≈ 12.5 µg/mL) | 26.6 | –
C#Cc1ccc2oc(=O)c3c(O)c4cccc(O[C@@H]5OC(C)[C@H](O)[C@H](O)C5O[C@H]5OC(C)[C@H](O)C(OC)[C@H]5O)c4c4oc(=O)c1c2c34 (stereo partly shown) [Ethinylchartreusin, Ethynylchartreusin] | > 77 | 64.1 | 19.2 (≈ 12.5 µg/mL) | > 77 | GI50 ([7]; Homo sapiens, HT-29, 8 h, HT-29, 420 nm, 3 × 8 h, read-out: antiproliferative GI50, HT-29, 420 nm, 3 × 8 h): 26.9 µM; GI50 ([7]; Homo sapiens, HT-29, HT-29, w/o light, read-out: antiproliferative GI50, HT-29, w/o light): 33.2 µM
Norchartarin-1,10 bis-1,4′-bipiperidine-1′-carboxylate | – | – | – | – | CC50 [5]: > 71 µM; GI50 [2, 11]: 52.2 µM; MIC [3, 12]: >100 µM; GI50 [4]: 52.3 µM
Cc1ccc2oc(=O)c3c(OC(=O)N4CCC(N5CCCCC5)CC4)c4cccc(OC(=O)N5CCC(N6CCCCC6)CC5)c4c4oc(=O)c1c2c34 [Chartarin-1,10 bis-1,4′-bipiperidine-1′-carboxylate] | 10.1 | 3.18 | – | 4.43 | MIC [3, 21]: > 100 µM
CCc1ccc2oc(=O)c3c(O)c4cccc(O[C@@H]5OC(C)[C@H](O)C(O)C5O[C@H]5OC(C)[C@H](O)C(OC)C5O)c4c4oc(=O)c1c2c34 (stereo partly shown) [Homochartreusin] | 23.1 | 2.14 | 9.6 (≈ 6.28 µg/mL) | 7.18 | selectivity (GI50 HUVEC versus cytotoxic activity HeLa) ([5]; compared with Chartreusin, HUVEC GI50 similarly low, HeLa CC50 different): higher selectivity
COC1[C@@H](O)C(C)O[C@H](OC2[C@H](Oc3cccc4c(O)c5c(=O)oc6cc(C)cc7c(=O)oc(c34)c5c67)OC(C)[C@H](O)[C@@H]2O)[C@@H]1O (stereo partly shown) [(1→2)Abeochartreusin, (1→2)-Abeo-chartreusin] | 14.2 | 2.03 | 4.87 (≈ 3.12 µg/mL) | 5.78 | –
